Source: PMC5696560 (Bioorganic & Medicinal Chemistry Letters, 2017)
≈ marks a conversion by molar mass, not a printed value.

Legend:
M.tb strain H37Rv [1] = assay: LORA: inhibition of growth of M.tb H37Rv under non-replicating conditions; format: cell-based; details: Mycobacterium tuberculosis
Procedure: The compounds were evaluated for their inhibition of growth (measured as MIC90 values in µg/mL) against M.tb (strain H37Rv) under both replicating (MABA)[16] or non-replicating (LORA)[17] conditions. […] In a search for less lipophilic analogues, we prepared and evaluated compounds where this phenyl B-ring unit was replaced with different heterocycles of varying lipophilicity (Table 1).

M.tb strain H37Rv [2] = assay: MABA: inhibition of growth of M.tb H37Rv under aerobic (replicating) conditions; format: cell-based; details: for MIC90 / MIC: Mycobacterium tuberculosis, H37RV; for MIC: read-out: MIC90 MABA; for anti-M.tb activity (in words): M.tb H37Rv, comparison with 1

| SMILES | MIC90 (M.tb strain H37Rv [1]) [µg/mL] | MIC90 (M.tb strain H37Rv [2]) [µg/mL] | MIC (M.tb strain H37Rv [2]) [µg/mL] | anti-M.tb activity (in words) (M.tb strain H37Rv [2]) |
| --- | --- | --- | --- | --- |
| COc1cccc([C@](O)(CCN(C)C)[C@@H](c2cc3cc(Br)ccc3nc2OC)c2cc(C)sc2C)c1OC (racemic) [Compound 4] | 0.27 (≈ 0.45 µM) | 0.5 (≈ 0.834 µM) | 0.05 to 0.58 (≈ 0.0834 to 0.967 µM) |  |
| COc1nc2ccc(Br)cc2cc1[C@@H](c1cc(C)sc1C)[C@@](O)(CCN(C)C)c1cncc(C)c1 (racemic) [Compound 6] | 0.3 (≈ 0.541 µM) | 0.58 (≈ 1.05 µM) | 0.05 to 0.58 (≈ 0.0902 to 1.05 µM) |  |
| COc1nc2ccc(Br)cc2cc1[C@@H](c1cc(C)sc1C)[C@@](O)(CCN(C)C)c1cccc(C#N)c1 [Compound 3, 3-(1-(6-Bromo-2-methoxyquinolin-3-yl)-4-(dimethylamino)-1-(2,5-dimethylthiophen-3-yl)-2-hydroxybutan-2-yl)benzonitrile] |  | 0.12 (≈ 0.213 µM) | 0.05 to 0.58 (≈ 0.0886 to 1.03 µM) |  |
| COc1cccc([C@](O)(CCN(C)C)[C@@H](c2cc3cc(Br)ccc3nc2OC)c2cc(C)sc2C)n1 [Compound 5] | 0.15 (≈ 0.263 µM) | 0.12 (≈ 0.21 µM) | 0.05 to 0.58 (≈ 0.0876 to 1.02 µM) |  |
| COc1nc2ccc(C#N)cc2cc1[C@@H](c1cc(C)sc1C)[C@@](O)(CCN(C)C)c1cncc(C)c1 [Compound 7] | 1.1 (≈ 2.2 µM) | 1.94 (≈ 3.87 µM) | 0.05 to 0.58 (≈ 0.0999 to 1.16 µM) | less active |
| COc1nc2ccc(Br)cc2cc1[C@@H](c1cc(C)sc1C)[C@@](O)(CCN(C)C)c1cccnc1OC [Compound 8] | 0.2 (≈ 0.351 µM) | 0.12 (≈ 0.21 µM) | 0.05 to 0.58 (≈ 0.0876 to 1.02 µM) |  |
| COc1nc2ccc(C#N)cc2cc1[C@@H](c1cc(C)c(C)s1)[C@@](O)(CCN(C)C)c1cccc(F)c1 [Compound 10] | 0.2 (≈ 0.397 µM) | 0.05 (≈ 0.0993 µM) | 0.05 to 0.58 (≈ 0.0993 to 1.15 µM) | equally potent |
| COc1nc2ccc(Br)cc2cc1[C@@H](c1ccc(C)s1)[C@@](O)(CCN(C)C)c1cccnc1OC [Compound 12] | 0.52 (≈ 0.934 µM) | 0.22 (≈ 0.395 µM) |  | effective inhibitors |
| COc1ccc([C@H](c2cc3cc(Br)ccc3nc2OC)[C@@](O)(CCN(C)C)c2cccnc2OC)s1 [Compound 13] | 0.53 (≈ 0.926 µM) | 0.24 (≈ 0.419 µM) |  | effective inhibitors |
| COc1ncccc1[C@H](c1cc2cc(Br)ccc2nc1OC)[C@@](O)(CCN(C)C)c1cccc(C)c1 [Compound 30] | 0.25 (≈ 0.454 µM) | 0.13 (≈ 0.236 µM) |  |  |
| COc1ncccc1[C@H](c1cc2cc(C#N)ccc2nc1OC)[C@@](O)(CCN(C)C)c1cccc(C)c1 [Compound 31] | 0.15 (≈ 0.302 µM) | 0.3 (≈ 0.604 µM) |  |  |
| COc1ncccc1[C@H](c1cc2cc(Br)ccc2nc1OC)[C@@](O)(CCN(C)C)c1cccc(C#N)c1 [Compound 33] | 0.75 (≈ 1.34 µM) | 0.34 (≈ 0.606 µM) |  |  |
| COc1ncccc1[C@H](c1cc2cc(C#N)ccc2nc1OC)[C@@](O)(CCN(C)C)c1cccc(C#N)c1 [Compound 34] | 0.82 (≈ 1.62 µM) | 0.38 (≈ 0.749 µM) |  |  |
| CCN(CC)c1ccc([C@H](c2cc3cc(Br)ccc3nc2OC)[C@@](O)(CCN(C)C)c2cccc(F)c2)cn1 [Compound 37] |  | 0.02 (≈ 0.0336 µM) |  |  |
| COc1nc2ccc(Br)cc2cc1[C@@H](c1ccc(SC)nc1)[C@@](O)(CCN(C)C)c1cccc(F)c1 [Compound 38] | 0.37 (≈ 0.649 µM) | 0.14 (≈ 0.245 µM) |  |  |
| COc1cccc([C@](O)(CCN(C)C)[C@H](c2cncc(C)c2)c2cc3cc(Br)ccc3nc2OC)c1 [Compound 40] | 2.2 (≈ 4 µM) | 1.9 (≈ 3.45 µM) |  |  |
| COc1nc2ccc(Br)cc2cc1[C@@H](c1cncc(C)c1)[C@@](O)(CCN(C)C)c1cccc(C#N)c1 [Compound 41] | 3.38 (≈ 6.2 µM) | 1.32 (≈ 2.42 µM) |  |  |
| COc1nc2ccc(Br)cc2cc1[C@@H](c1ccnc(OC)c1OC)[C@@](O)(CCN(C)C)c1cccc(F)c1 [Compound 44] | 0.07 (≈ 0.12 µM) | 0.02 (≈ 0.0342 µM) |  |  |
| COc1nc2ccc(C#N)cc2cc1[C@@H](c1ccnc(OC)c1OC)[C@@](O)(CCN(C)C)c1cccc(C)c1 [Compound 46] | 0.14 (≈ 0.266 µM) | 0.15 (≈ 0.285 µM) |  |  |
| COc1cccc([C@](O)(CCN(C)C)[C@@H](c2cc3cc(Br)ccc3nc2OC)c2ccnc(OC)c2OC)c1 [Compound 47] |  | < 0.02 |  | retain the potency of 1 |
